From ChEMBL document CHEMBL5291721, “A preclinical secondary pharmacology resource illuminates target-adverse drug reaction associations of marketed drugs” (Nat Commun, 2023) come the findings set out here.

Some targets named below: D(1A) dopamine receptor (Homo sapiens, UniProt P21728); Histamine H3 receptor (Homo sapiens, UniProt Q9Y5N1); Mu-type opioid receptor (Homo sapiens, UniProt P35372).
Another test concerns the target Prothrombin (Homo sapiens, UniProt P00734). The class given is functional.
Test [1] addresses Sodium-dependent serotonin transporter (Homo sapiens, UniProt P31645).
Test [2] has as its target T1, Thromboxane A2 receptor (Homo sapiens, UniProt P21731).
T1 sequence (P21731 whole entry): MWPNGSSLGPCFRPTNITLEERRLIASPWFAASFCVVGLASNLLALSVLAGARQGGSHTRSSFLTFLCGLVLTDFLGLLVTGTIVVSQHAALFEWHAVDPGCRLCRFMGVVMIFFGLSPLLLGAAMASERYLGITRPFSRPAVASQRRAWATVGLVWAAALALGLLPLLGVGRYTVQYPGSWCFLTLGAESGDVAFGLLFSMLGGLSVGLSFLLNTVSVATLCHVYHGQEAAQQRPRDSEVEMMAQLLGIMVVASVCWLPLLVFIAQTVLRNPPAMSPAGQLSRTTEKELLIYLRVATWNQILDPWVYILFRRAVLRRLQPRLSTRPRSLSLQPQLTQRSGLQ
The class given is functional, cell-based.

Test [3] deals with Sodium-dependent dopamine transporter (Homo sapiens, UniProt Q01959).
The target in test [4] is cGMP-inhibited 3',5'-cyclic phosphodiesterase 3A (Homo sapiens, UniProt Q14432). The test is classed as functional.
Test [5] addresses T2, Alpha-2A adrenergic receptor (Homo sapiens, UniProt P08913).
T2 sequence (P08913 whole entry): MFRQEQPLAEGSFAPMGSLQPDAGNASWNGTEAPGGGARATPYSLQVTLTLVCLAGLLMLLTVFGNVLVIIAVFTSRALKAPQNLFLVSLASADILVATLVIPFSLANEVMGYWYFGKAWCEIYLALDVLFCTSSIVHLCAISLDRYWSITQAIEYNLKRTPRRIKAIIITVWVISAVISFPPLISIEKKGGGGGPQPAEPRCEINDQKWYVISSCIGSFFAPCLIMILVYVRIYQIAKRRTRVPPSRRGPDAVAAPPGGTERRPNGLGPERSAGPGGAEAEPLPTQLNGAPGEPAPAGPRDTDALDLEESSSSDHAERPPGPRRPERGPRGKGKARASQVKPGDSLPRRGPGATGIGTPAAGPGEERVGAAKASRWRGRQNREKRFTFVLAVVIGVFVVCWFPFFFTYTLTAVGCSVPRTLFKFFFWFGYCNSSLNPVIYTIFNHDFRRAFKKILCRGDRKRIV

Test [6] concerns the target T3, Muscarinic acetylcholine receptor M2 (Homo sapiens, UniProt P08172).
T3 sequence (P08172 whole entry): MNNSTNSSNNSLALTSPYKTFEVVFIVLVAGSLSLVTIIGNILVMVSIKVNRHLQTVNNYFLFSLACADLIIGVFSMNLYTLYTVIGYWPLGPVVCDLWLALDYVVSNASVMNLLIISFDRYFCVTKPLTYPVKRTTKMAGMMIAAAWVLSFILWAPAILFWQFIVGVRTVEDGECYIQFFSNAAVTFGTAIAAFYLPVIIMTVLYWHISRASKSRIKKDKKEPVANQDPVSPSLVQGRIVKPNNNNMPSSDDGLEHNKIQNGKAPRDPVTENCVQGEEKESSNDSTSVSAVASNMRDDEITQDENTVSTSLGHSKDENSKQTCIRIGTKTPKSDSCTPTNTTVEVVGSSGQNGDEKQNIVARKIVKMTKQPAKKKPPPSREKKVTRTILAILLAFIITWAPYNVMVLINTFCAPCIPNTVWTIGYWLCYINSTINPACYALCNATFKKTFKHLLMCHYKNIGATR

Test [7] has as its target Voltage-gated inwardly rectifying potassium channel KCNH2 (Homo sapiens, UniProt Q12809). The class given is functional. Conditions: read-out: AC50.
Another test addresses Acetylcholinesterase (Homo sapiens, UniProt P22303). The class given is functional.
Test [8] deals with Prostaglandin G/H synthase 1 (Homo sapiens, UniProt P23219). The test is classed as functional.
Test [9] deals with T1, Thromboxane A2 receptor. The test is classed as functional, cell-based. This is another data set of the same source.
Test [10] has as its target T4, Alpha-1A adrenergic receptor (Homo sapiens, UniProt P35348).
T4 sequence (P35348 whole entry): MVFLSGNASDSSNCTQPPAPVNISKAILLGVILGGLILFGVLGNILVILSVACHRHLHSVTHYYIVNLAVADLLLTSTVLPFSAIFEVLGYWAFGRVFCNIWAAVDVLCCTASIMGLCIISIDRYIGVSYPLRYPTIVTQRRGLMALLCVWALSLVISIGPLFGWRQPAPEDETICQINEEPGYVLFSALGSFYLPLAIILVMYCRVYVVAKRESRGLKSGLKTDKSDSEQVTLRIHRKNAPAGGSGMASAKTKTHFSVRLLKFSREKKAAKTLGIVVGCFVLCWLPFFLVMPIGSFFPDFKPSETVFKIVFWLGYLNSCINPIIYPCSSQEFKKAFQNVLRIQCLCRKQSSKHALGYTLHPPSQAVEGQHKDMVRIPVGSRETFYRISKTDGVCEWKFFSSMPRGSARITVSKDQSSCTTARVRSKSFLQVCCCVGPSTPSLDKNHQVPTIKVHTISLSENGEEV
The class given is functional, cell-based.

What is called AC50 is the concentration giving half of the maximal activity seen.
Note: assay procedure not described here.

Acetylcholinesterase, sequence (P22303 whole entry): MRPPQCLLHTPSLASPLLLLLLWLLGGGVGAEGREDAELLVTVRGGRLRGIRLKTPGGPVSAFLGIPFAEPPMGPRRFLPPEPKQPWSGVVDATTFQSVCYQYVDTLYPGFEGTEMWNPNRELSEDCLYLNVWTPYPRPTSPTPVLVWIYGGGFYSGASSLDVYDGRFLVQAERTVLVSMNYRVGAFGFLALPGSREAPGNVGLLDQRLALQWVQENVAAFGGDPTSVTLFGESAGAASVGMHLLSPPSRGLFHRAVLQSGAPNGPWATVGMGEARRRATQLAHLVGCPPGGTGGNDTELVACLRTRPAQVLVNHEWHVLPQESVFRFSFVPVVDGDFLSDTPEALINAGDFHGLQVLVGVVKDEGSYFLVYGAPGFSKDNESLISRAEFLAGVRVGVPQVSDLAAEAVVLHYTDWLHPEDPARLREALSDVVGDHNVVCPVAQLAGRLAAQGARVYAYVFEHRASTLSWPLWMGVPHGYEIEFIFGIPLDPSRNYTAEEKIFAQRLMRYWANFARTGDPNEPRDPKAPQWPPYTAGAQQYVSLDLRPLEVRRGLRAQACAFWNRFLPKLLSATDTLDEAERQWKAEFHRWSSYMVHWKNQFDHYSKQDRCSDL
cGMP-inhibited 3',5'-cyclic phosphodiesterase 3A, sequence (Q14432 whole entry): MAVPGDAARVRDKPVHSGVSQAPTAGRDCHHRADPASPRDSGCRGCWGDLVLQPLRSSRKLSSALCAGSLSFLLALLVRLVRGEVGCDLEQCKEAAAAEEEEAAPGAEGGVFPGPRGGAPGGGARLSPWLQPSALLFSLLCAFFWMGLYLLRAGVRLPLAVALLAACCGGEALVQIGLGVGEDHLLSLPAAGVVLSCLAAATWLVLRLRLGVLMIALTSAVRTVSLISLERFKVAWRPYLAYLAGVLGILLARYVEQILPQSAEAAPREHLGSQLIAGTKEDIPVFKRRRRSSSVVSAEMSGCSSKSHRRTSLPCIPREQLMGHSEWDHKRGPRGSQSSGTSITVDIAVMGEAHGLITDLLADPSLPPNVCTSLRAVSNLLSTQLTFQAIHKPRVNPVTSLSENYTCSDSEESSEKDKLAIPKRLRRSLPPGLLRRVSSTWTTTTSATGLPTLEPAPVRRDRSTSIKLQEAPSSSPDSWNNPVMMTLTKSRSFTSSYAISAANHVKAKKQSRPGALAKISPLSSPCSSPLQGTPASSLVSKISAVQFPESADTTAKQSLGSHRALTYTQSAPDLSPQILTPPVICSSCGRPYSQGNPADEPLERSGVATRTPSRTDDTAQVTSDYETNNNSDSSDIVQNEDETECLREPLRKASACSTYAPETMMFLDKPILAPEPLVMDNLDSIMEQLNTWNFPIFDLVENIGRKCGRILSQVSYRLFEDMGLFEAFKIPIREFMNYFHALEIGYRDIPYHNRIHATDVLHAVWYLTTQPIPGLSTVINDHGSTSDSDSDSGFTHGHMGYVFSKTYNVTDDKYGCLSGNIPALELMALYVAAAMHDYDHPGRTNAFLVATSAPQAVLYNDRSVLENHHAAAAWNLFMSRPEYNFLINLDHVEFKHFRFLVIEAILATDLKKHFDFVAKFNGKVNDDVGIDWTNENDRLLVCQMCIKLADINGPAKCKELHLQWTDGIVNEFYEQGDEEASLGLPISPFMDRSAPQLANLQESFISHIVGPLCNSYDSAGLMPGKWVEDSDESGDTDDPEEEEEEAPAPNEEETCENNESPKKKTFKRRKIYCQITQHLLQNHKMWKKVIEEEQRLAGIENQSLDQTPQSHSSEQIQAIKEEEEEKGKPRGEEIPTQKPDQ
D(1A) dopamine receptor, sequence (P21728 whole entry): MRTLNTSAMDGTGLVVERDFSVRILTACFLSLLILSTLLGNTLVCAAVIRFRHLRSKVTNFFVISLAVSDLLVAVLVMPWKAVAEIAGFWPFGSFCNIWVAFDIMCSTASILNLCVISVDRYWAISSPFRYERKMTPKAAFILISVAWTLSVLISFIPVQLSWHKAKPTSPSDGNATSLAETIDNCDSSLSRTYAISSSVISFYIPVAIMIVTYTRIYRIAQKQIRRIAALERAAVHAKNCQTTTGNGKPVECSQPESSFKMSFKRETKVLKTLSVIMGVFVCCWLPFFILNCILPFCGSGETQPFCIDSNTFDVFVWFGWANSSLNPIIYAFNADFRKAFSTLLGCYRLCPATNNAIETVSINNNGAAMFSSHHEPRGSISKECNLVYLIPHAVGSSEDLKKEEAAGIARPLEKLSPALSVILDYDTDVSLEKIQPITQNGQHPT
Voltage-gated inwardly rectifying potassium channel KCNH2, sequence (Q12809 whole entry): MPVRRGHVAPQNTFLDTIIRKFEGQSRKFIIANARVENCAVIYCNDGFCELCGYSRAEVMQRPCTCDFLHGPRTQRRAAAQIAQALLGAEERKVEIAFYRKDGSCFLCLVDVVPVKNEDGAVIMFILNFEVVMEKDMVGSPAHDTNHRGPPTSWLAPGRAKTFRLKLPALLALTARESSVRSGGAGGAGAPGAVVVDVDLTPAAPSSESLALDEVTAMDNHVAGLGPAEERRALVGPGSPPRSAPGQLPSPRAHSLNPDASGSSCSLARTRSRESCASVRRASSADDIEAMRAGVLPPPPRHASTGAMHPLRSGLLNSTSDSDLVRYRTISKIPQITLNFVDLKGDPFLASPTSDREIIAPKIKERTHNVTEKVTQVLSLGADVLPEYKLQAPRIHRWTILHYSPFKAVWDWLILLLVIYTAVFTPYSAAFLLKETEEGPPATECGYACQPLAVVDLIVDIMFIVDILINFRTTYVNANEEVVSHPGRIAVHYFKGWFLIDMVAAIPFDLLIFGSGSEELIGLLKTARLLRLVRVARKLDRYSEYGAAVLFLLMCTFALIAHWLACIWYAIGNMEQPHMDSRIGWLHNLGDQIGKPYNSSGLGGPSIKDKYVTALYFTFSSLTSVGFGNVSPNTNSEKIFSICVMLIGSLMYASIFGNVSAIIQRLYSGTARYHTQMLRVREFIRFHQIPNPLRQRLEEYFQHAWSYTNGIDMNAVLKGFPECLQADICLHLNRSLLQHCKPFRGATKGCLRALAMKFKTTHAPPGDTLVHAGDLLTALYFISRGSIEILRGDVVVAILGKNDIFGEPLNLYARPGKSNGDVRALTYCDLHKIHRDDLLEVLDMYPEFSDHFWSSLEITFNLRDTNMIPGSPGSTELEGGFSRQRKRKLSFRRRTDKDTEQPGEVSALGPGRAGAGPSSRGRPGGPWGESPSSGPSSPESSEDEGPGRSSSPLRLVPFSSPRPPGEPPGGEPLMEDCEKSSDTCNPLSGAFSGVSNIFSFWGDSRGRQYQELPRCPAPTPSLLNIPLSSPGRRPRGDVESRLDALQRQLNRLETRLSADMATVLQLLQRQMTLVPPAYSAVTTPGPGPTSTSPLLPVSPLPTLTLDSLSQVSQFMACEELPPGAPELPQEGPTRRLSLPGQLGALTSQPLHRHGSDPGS
Sodium-dependent dopamine transporter, sequence (Q01959 whole entry): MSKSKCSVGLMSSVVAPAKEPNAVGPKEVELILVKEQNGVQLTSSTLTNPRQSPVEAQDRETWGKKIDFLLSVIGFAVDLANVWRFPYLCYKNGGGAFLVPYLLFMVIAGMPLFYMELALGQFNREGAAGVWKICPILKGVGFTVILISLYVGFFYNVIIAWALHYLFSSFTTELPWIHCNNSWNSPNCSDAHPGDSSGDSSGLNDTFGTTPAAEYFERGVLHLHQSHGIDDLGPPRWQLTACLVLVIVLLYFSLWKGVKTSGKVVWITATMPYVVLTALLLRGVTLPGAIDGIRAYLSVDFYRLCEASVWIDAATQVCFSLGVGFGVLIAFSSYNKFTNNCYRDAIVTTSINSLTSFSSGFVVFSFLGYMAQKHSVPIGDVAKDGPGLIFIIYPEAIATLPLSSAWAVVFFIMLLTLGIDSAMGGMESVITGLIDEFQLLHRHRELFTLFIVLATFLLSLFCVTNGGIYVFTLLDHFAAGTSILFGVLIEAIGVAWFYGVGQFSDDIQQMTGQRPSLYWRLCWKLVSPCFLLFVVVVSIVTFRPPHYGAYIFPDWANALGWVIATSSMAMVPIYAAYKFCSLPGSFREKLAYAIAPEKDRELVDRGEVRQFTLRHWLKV
Mu-type opioid receptor, sequence (P35372 whole entry): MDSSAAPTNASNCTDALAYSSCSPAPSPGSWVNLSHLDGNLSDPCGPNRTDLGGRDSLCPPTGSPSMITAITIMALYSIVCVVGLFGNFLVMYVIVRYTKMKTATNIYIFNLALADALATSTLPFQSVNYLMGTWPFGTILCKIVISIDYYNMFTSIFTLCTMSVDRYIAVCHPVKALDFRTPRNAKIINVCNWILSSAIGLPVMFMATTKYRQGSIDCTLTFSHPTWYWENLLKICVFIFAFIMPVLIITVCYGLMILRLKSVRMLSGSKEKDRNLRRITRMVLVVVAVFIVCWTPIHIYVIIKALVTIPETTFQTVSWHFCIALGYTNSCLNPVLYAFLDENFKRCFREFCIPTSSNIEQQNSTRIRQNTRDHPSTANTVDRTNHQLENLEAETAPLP
Prostaglandin G/H synthase 1, sequence (P23219 whole entry): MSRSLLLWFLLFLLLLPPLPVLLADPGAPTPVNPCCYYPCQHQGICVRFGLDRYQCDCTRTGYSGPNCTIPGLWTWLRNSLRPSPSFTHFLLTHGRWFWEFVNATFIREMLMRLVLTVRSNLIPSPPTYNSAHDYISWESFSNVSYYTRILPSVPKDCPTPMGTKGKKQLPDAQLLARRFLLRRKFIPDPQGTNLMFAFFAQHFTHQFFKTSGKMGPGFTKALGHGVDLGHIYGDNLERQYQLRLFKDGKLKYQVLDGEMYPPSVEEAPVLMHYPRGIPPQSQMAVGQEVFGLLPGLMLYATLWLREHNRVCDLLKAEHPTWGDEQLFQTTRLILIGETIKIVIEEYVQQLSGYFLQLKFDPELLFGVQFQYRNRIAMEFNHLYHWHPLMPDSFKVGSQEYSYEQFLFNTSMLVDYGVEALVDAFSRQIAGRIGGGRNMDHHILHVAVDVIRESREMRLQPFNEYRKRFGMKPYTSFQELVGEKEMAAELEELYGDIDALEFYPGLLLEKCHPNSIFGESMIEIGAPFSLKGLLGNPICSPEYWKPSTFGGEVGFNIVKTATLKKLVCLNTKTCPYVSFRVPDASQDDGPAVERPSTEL

With `C[C@]1(COc2ccc(N3CCC(Oc4ccc(OC(F)(F)F)cc4)CC3)cc2)Cn2cc([N+](=O)[O-])nc2O1`, the AC50 is greater than 30 µM on Prothrombin; 2.02 µM in [1]; greater than 30 µM on Thromboxane A2 receptor [2]; greater than 30 µM at D(1A) dopamine receptor; greater than 30 µM in test [3]; greater than 30 µM in [4]. Moreover, the AC50 is greater than 30 µM in test [5]; greater than 30 µM in [6]; greater than 30 µM in [7]; greater than 30 µM at Acetylcholinesterase; 27.9 µM in test [8]; greater than 30 µM on Thromboxane A2 receptor [9]. Besides, the concentration at half-maximal activity (AC50) (on Histamine H3 receptor; in test [10]; at Mu-type opioid receptor) was greater than 30 µM each time.
Turning to `CC(C1=C(CCN(C)C)Cc2ccccc21)c1ccccn1` (stereo not drawn), the AC50 was greater than 30 µM at Prothrombin; 13.7 µM in test [1]; greater than 30 µM at Thromboxane A2 receptor [2]; 6.52 µM on D(1A) dopamine receptor; greater than 30 µM in test [3]; greater than 30 µM in test [4]. The AC50 in [5] is 15.1 µM; in test [6], 0.0784 µM; in [7], 2.7 µM; at Acetylcholinesterase, greater than 30 µM; in test [8] it was greater than 30 µM; on Thromboxane A2 receptor [9], greater than 30 µM. The AC50 on Histamine H3 receptor was 13.2 µM; in test [10], greater than 30 µM; on Mu-type opioid receptor, 7.04 µM.
`CC(=O)OC(C)OC(=O)C(C)c1ccc(-c2ccccc2)c(F)c1` (stereo not drawn): the AC50 (on Prothrombin; in [1]; on Thromboxane A2 receptor [2]; at D(1A) dopamine receptor; in [3]; in test [4]) was greater than 30 µM throughout. Also, the AC50 was greater than 30 µM in test [5]; greater than 30 µM in test [6]; greater than 30 µM in test [7]; greater than 30 µM at Acetylcholinesterase; 0.0309 µM in test [8]; greater than 30 µM on Thromboxane A2 receptor [9]. Also, the AC50 (at Histamine H3 receptor; in [10]; at Mu-type opioid receptor) was greater than 30 µM in each case.
Consider `C[C@H](N)C(=O)O` [ALANINE], for which the AC50 (on Prothrombin; in test [1]; on Thromboxane A2 receptor [2]; at D(1A) dopamine receptor; in [3]; in [4]) was greater than 30 µM throughout. The AC50 (in [5]; in test [6]; in test [7]; at Acetylcholinesterase; in test [8]; on Thromboxane A2 receptor [9]) was greater than 30 µM each time. The AC50 (at Histamine H3 receptor; in test [10]; at Mu-type opioid receptor) was greater than 30 µM in each case.
With `O=C1c2c(O)cccc2Cc2cccc(O)c21` [ANTHRALIN], the AC50 is greater than 30 µM at Prothrombin; greater than 3 µM in [1]; greater than 30 µM on Thromboxane A2 receptor [2]; greater than 30 µM at D(1A) dopamine receptor; greater than 3 µM in test [3]; greater than 30 µM in [4]. The AC50 in test [5] is greater than 30 µM; in [6], greater than 3 µM; in test [7] it was greater than 1 µM; on Acetylcholinesterase it was greater than 30 µM; in test [8] it was 0.875 µM; on Thromboxane A2 receptor [9] it was greater than 30 µM. For the same compound, the values for the concentration at half-maximal activity (AC50) (on Histamine H3 receptor; in test [10]; at Mu-type opioid receptor) were 28.9 µM, greater than 30 µM and greater than 30 µM, respectively.
Consider `COC(=O)C1=C(C)NC(C)=C(C(=O)O[C@H]2CCN(Cc3ccccc3)C2)[C@H]1c1cccc([N+](=O)[O-])c1` [BARNIDIPINE], for which the AC50 at Prothrombin is greater than 30 µM; in test [1], 13.6 µM; on Thromboxane A2 receptor [2], greater than 30 µM; at D(1A) dopamine receptor, 8.89 µM; in [3], 1.9 µM; in [4] it was greater than 30 µM. Further, the AC50 in test [5] is 6.54 µM; in test [6], 2.35 µM; in test [7] it was 1.8 µM; on Acetylcholinesterase, greater than 30 µM; in test [8], greater than 30 µM; on Thromboxane A2 receptor [9], 4.47 µM. Moreover, the AC50 at Histamine H3 receptor is greater than 30 µM; in test [10] it was greater than 30 µM; on Mu-type opioid receptor, 3.24 µM.
With `C[C@@H](O)[C@H]1C(=O)N2C(C(=O)[O-])=C(SC3Cn4cnc[n+]4C3)[C@H](C)[C@H]12` (stereo partly drawn) [BIAPENEM], the AC50 (on Prothrombin; in test [1]; on Thromboxane A2 receptor [2]; at D(1A) dopamine receptor; in test [3]; in [4]) was greater than 30 µM in each case. The AC50 (in test [5]; in [6]; in [7]; on Acetylcholinesterase; in test [8]; at Thromboxane A2 receptor [9]) was greater than 30 µM each time. For the same compound, the AC50 (on Histamine H3 receptor; in [10]; on Mu-type opioid receptor) was greater than 30 µM in each case.
In the case of `CCCCOc1ccc(CC(=O)NO)cc1` [BUFEXAMAC], the AC50 (on Prothrombin; in test [1]; at Thromboxane A2 receptor [2]; at D(1A) dopamine receptor; in [3]; in test [4]) was greater than 30 µM throughout. The AC50 (in test [5]; in test [6]; in [7]; at Acetylcholinesterase; in test [8]; at Thromboxane A2 receptor [9]) was greater than 30 µM throughout. The AC50 (at Histamine H3 receptor; in [10]; at Mu-type opioid receptor) was greater than 30 µM throughout.
Consider `c1cc(CN2CCCNCCNCCCNCC2)ccc1CN1CCCNCCNCCCNCC1` [PLERIXAFOR], for which the AC50 (at Prothrombin; in test [1]; at Thromboxane A2 receptor [2]; on D(1A) dopamine receptor; in [3]; in test [4]) was greater than 30 µM throughout. For the same compound, the AC50 in test [5] was greater than 30 µM; in test [6] it was greater than 30 µM; at Acetylcholinesterase, greater than 30 µM; in [8], greater than 30 µM; on Thromboxane A2 receptor [9], greater than 30 µM; on Histamine H3 receptor, 0.307 µM. For the same compound, the AC50 (in test [10]; at Mu-type opioid receptor) was greater than 30 µM each time.
As to `O=C(NC(Cc1cc(=O)[nH]c2ccccc12)C(=O)O)c1ccc(Cl)cc1` (stereo not drawn) [REBAMIPIDE], the AC50 (at Prothrombin; in test [1]; at Thromboxane A2 receptor [2]; at D(1A) dopamine receptor; in [3]; in test [4]) was greater than 30 µM throughout. Besides, the AC50 (in [5]; in test [6]; on Acetylcholinesterase; in test [8]; at Thromboxane A2 receptor [9]; on Histamine H3 receptor) was greater than 30 µM each time. In addition, the AC50 (in test [10]; at Mu-type opioid receptor) was greater than 30 µM in each case.
